Test results: US11452731B2, “Method of treating and preventing loss of cognition” (ENDORECHERCHE, INC., priority 2009, dated 2022)
“Also recorded” adds a separate entry of the source. Marks after values point to notes of the source that are not given here.

Key:
[1] = 6 months; cited from earlier work
[2] = 10% DHEA cream once daily for 12 months in 60 to 70 year old women; type: in vivo
From the text: The use of estrogen replacement therapy requires the addition of progestins to counteract the endometrial proliferation induced by estrogens while both estrogens and progestins could increase the risk of breast cancer (Bardon et al., 1985; Colditz et al., 1995). In order to avoid the limitations of standard estrogen (ERT) or hormonal replacement therapy (HRT), we have studied the effect of DHEA administration to 60 to 70 year old women for 12 months on bone mineral density, parameters of bone formation and turnover, serum lipids, glucose and insulin, adipose tissue mass, muscular mass, energy, well-being as well as on vaginal and endometrial histology (Diamond et al., 1996; Labrie et al., 1997c). DHEA was administered percutaneously to avoid first passage of the steroid precursor through the liver.
We have thus evaluated the effect of chronic replacement therapy with a 10% DHEA cream applied once daily for 12 months in 60 to 70 year old women (N=15). […] These changes in bone mineral density were accompanied by significant decreases at 12 months of 38% and 22% in urinary hydroxyproline and in plasma bone alkaline phosphatase, respectively (all p<0.05).

[3] = 12-month treatment of ovariectomized rats with DHEA alone or with Flutamide or EM-800: bone histomorphometry, bone markers, serum lipids; type: in vivo, rat; conditions: 12 months
[4] = Clinical trial ERC-213: DHEA vaginal suppositories for 7 days, maturation index and vaginal pH in postmenopausal women (Example 11); type: in vivo
Method: Data are expressed as means±SEM (n=9 or 10). *, p<0.05, **, p<0.01, Data on Day 7 versus Data on Day 1.
The primary objective of that study was measurement of the maturation value of the vaginal epithelial cells following daily intravaginal application of DHEA. Forty postmenopausal women were randomized to receive a daily dose of one ovule of the following DHEA concentrations: 0.0%, 0.5% (6.5 mg of DHEA/ovule), 1.0% (13 mg of DHEA/ovule) or 1.8% (23.4 mg of DHEA/ovule) for 7 days. The systemic bioavailability of DHEA and its metabolites were also measured.

[5] = Endometrial epithelium thickness in OVX nude mice after 161 days of antiestrogen (Example 8); type: in vivo
Outline: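 OVX nude mice received antiestrogen with or without an estrone implant; controls were OVX and OVX+Estrone. Antiestrogens were given as suspensions for 161 days. Uteri were then collected and H&E sections analysed by image analysis for mean endometrial epithelial cell height.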

[6] = Uterine and vaginal weight in ovariectomized BALB/c mice treated orally for 9 days with or without estrone (Example 3); type: in vivo; conditions: for inhibition of estrone-stimulated uterine weight / inhibition of vaginal weight (estrone-stimulated): OVX mice + estrone, oral 9 days
Outline: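 OVX BALB/c mice (18-20 g) were dosed orally by gavage once daily for 9 days from day 2 post-OVX, with or without estrone s.c. twice daily from day 5 for 6 days. The vehicle was 4% ethanol in 0.4% methylcellulose. Uterine and vaginal weights were taken on the 11th morning after OVX.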

human Ishikawa cells = test: Alkaline phosphatase activity in human endometrial adenocarcinoma Ishikawa cells (Example 6)
[7] = tested on: ZR-75-1 human breast cancer xenografts; test: Tamoxifen and EM-652.HCl alone or combined on growth of ZR-75-1 xenografts in nude mice (FIG. 7); type: in vivo; conditions: hydrochloride
[8] = OVX mice, absence of estrone, 10 μg daily (no-effect statements: 1 μg and 10 μg)

SMILES: C[C@]12CC[C@H](O)CC1=CC[C@@H]1[C@@H]2CC[C@]2(C)C(=O)CC[C@@H]12 [DHEA, dehydroepiandrosterone]
- decrease of total body fat mass [1]: 1.4 kg
- increase of fat-free mass [1]: 0.9 kg
- decrease in fasting plasma insulin levels [2]: 17%
- decrease in plasma bone alkaline phosphatase [2]: 22%
- decrease in subcutaneous skin fold thickness [2]: 9.8%
- decrease in urinary hydroxyproline [2]: 38%
- decrease of fasting plasma glucose [2]: 12%
- decrease of femoral fat (mid-thigh, computed tomography) [2]: 3.8%
- effect on the endometrium [2]: remained completely atrophic
- increase in femoral muscular area [2]: 3.5%
- increase of bone mass density at the hip [2]: 2.3%
- increase of bone mass density at the hip Ward's triangle [2]: 3.75%
- increase of bone mass density at the lumbar spine level [2]: 2.2%
- increase of the index of sebum secretion [2]: 79%
- increase over control in plasma osteocalcin [2]: 135%
- women with stimulated vaginal epithelium maturation among those with a maturation value of zero at onset [2]: 8 out of 10
- reduction of serum cholesterol versus OVX control [3]: 22%
- Alkaline phosphatase (serum) ([3]; OVX rats): 201±25 IU/L
- CHOLESTEROL (serum) ([3]; OVX rats): 1.78 ± 0.16 mmol/L
- OH-proline/creatinin (urine) ([3]; OVX rats): 7.3±1.0 μmol/mmol
- Triglycerides (serum) ([3]; OVX rats): 0.8 ± 0.1 mmol/L
- increase in trabecular bone number compared to ovariectomized controls ([3]; OVX rats): 137%
- trabecular bone number ([3]; OVX rats): 1.27±0.1 per mm
- trabecular bone volume of the tibia ([3]; OVX rats): 11.9±0.6%
- increase of maturation index, Day 7 versus Day 1 ([4]; 0.5% DHEA vaginal suppository daily): 107%
- Vaginal pH ([4]; 0.5% DHEA, Day 1 (before)): 6.29±0.21
- Vaginal pH ([4]; 0.5% DHEA, Day 7): 5.75±0.27
- increase of maturation index, Day 7 versus Day 1 ([4]; 1.0% DHEA vaginal suppository daily): 75%
- Vaginal pH ([4]; 1.0% DHEA, Day 1 (before)): 6.47±0.23
- Vaginal pH ([4]; 1.0% DHEA, Day 7): 5.76±0.22
- increase of maturation index, Day 7 versus Day 1 ([4]; 1.8% DHEA vaginal suppository daily): 150%
- Vaginal pH ([4]; 1.8% DHEA, Day 1 (before)): 6.53±0.25
- Vaginal pH ([4]; 1.8% DHEA, Day 7): 5.86±0.28

SMILES: CC1=C(c2ccc(O)cc2)[C@H](c2ccc(OCCN3CCCCC3)cc2)Oc2cc(O)ccc21.Cl [EM-652.HCl, (S)-(+)-7-hydroxy-3-(4′-hydroxyphenyl)-4-methyl-2-(4″-(2′″-piperidinoethoxy)phenyl)-2H-1-benzopyran hydrochloride]
- inhibition of the stimulatory effect of estrone on epithelial height ([5]; 50 μg daily oral, estrone stimulation): 70%
- height of uterine epithelial cells, % of the OVX control group value ([5]; 200 μg daily, absence of estrone): 114%
- ENDOMETRIAL EPITHELIUM THICKNESS (μm) ± SEM ([5]; OVX + E1, antiestrogen 50 μg daily): 25.06^b ± 0.07 μm
- ENDOMETRIAL EPITHELIUM THICKNESS (μm) ± SEM ([5]; OVX without E1, antiestrogen 200 μg daily): 20.79 ± 0.10 μm
- inhibition of estrone-stimulated uterine weight ([6]; 1 μg daily): 24%
- inhibition of vaginal weight (estrone-stimulated) ([6]; 1 μg daily): 10%
- inhibition of estrone-stimulated uterine weight ([6]; 3 μg daily): 48%
- inhibition of vaginal weight (estrone-stimulated) ([6]; 3 μg daily): 25%
- inhibition of estrone-stimulated uterine weight ([6]; 10 μg daily): 72%
- inhibition of vaginal weight (estrone-stimulated) ([6]; 10 μg daily): 53%
- stimulation of uterine weight (estrogenic effect) [6, 8]: no significant stimulatory effect
- stimulation of vaginal weight (estrogenic effect) [6, 8]: no significant stimulatory effect
- IC50 (human Ishikawa cells; Homo sapiens, Ishikawa, 120 h, read-out: Inhibition of 1 nM E2-induced stimulation of alkaline phosphatase IC50): 1.52 ± 0.22 nM
- Emax (human Ishikawa cells; Homo sapiens, Ishikawa, 120 h, read-out: Maximal stimulation of alkaline phosphatase % of 1 nM E2 stimulation): 1.88 ± 0.26%
- Maximal inhibition of 1 nM E2-induced stimulation of alkaline phosphatase (human Ishikawa cells; Ishikawa cells, 5-day incubation, 1 nM E2): 98.97 ± 0.174 (18)
- effect on growth of ZR-75-1 xenografts [7]: did not exert any stimulatory effect; also recorded: no effect on tumor growth
